Source: the supplement of paper PMC10307832

Key:
Experiment in all cases: relative viability (nuclei count vs DMSO), 5 days (fraction); higher = more cells survive
[1] = tested on: A-427
Outline: (§1)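 Nuclei were stained with Hoechst during a one-step fixation (final 0.05% Triton X-100, 1% formaldehyde, 1 ug/ml Hoechst) carried out 5 days after dosing, then counted on 4× images. The cells, lung cancer lines in 1536-well plates, had been dosed by pin tool the day after seeding with one drug alone or a fixed anchor-drug dose plus five library-drug doses (not always all listed) in √10 steps. Relative viability is the nuclei count in treated wells divided by that in vehicle wells, and each value is the median of duplicate plates.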

[2] = tested on: HCC-366
Outline: as §1

[3] = tested on: HCC-827
Outline: as §1

[4] = tested on: LC-2-ad
Outline: as §1

[5] = tested on: LCLC-103H
Outline: as §1

[6] = tested on: NCI-H1355
Outline: as §1

[7] = tested on: NCI-H1734
Outline: as §1

[8] = tested on: NCI-H1755
Outline: as §1

[9] = tested on: NCI-H1792
Outline: as §1

[10] = tested on: NCI-H1915
Outline: as §1

[11] = tested on: NCI-H1975
Outline: as §1

[12] = tested on: NCI-H1993
Outline: as §1

[13] = tested on: NCI-H2170
Outline: as §1

[14] = tested on: NCI-H2228
Outline: as §1

[15] = tested on: NCI-H2342
Outline: as §1

[16] = tested on: NCI-H2347
Outline: as §1

[17] = tested on: NCI-H23
Outline: as §1

[18] = tested on: NCI-H650
Outline: as §1

[19] = tested on: RERF-LC-KJ
Outline: as §1

[20] = tested on: SK-LU-1
Outline: as §1

[21] = tested on: SK-MES-1
Outline: as §1

[22] = tested on: SW 1573
Outline: as §1

[23] = tested on: UMC-11
Outline: as §1

In the case of `Cc1csc(=NC2CCCCC2)n1/N=C/c1ccc(O)c(O)c1O` [MIM1] + COc1cccc2cc(-c3nc([C@H]4CC[C@H](C(=O)O)CC4)n4ncnc(N)c34)[nH]c12 [OSI-027] (partner 0.5 µM), the relative viability ([1]; first compound 0.2 µM) is reported as 0.432, the relative viability ([1]; first compound 2 µM) is reported as 0.48 and the relative viability ([1]; first compound 6.325 µM) is reported as 0.456. For the same compound, the relative viability ([1]; first compound 20 µM) was 0.191, the relative viability ([2]; first compound 0.2 µM) was 0.852 and the relative viability ([2]; first compound 2 µM) was 0.677. The relative viability ([2]; first compound 6.325 µM) was 0.186, the relative viability ([2]; first compound 20 µM) was 0.0446 and the relative viability ([3]; first compound 0.2 µM) was 0.758. For the same compound, the relative viability ([3]; first compound 0.6325 µM) was 0.775, the relative viability ([3]; first compound 2 µM) was 0.695 and the relative viability ([3]; first compound 6.325 µM) was 0.529. The relative viability ([3]; first compound 20 µM) was 0.187, the relative viability ([4]; first compound 0.2 µM) was 0.909 and the relative viability ([4]; first compound 0.6325 µM) was 0.591. The relative viability ([4]; first compound 2 µM) was 0.754, the relative viability ([4]; first compound 6.325 µM) was 0.373 and the relative viability ([4]; first compound 20 µM) was 0.218. It also gave a relative viability ([5]; first compound 0.2 µM) of 0.467, a relative viability ([5]; first compound 0.6325 µM) of 0.422 and a relative viability ([5]; first compound 2 µM) of 0.468. For the same compound, the relative viability ([5]; first compound 6.325 µM) was 0.435, the relative viability ([5]; first compound 20 µM) was 0.304 and the relative viability ([6]; first compound 0.2 µM) was 0.409. For the same compound, the relative viability ([6]; first compound 0.6325 µM) was 0.366, the relative viability ([6]; first compound 2 µM) was 0.399 and the relative viability ([6]; first compound 6.325 µM) was 0.372. For the same compound, the relative viability ([6]; first compound 20 µM) was 0.253, the relative viability ([7]; first compound 0.2 µM) was 0.666 and the relative viability ([7]; first compound 0.6325 µM) was 0.495. The relative viability ([7]; first compound 2 µM) was 0.525, the relative viability ([7]; first compound 6.325 µM) was 0.304 and the relative viability ([7]; first compound 20 µM) was 0.201. The relative viability ([8]; first compound 0.2 µM) was 0.833, the relative viability ([8]; first compound 0.6325 µM) was 0.69 and the relative viability ([8]; first compound 2 µM) was 0.779. It also gave a relative viability ([8]; first compound 6.325 µM) of 0.703, a relative viability ([8]; first compound 20 µM) of 0.223 and a relative viability ([9]; first compound 0.2 µM) of 0.737. The relative viability ([9]; first compound 0.6325 µM) was 0.807, the relative viability ([9]; first compound 2 µM) was 0.791 and the relative viability ([9]; first compound 6.325 µM) was 0.578. The relative viability ([9]; first compound 20 µM) was 0.596, the relative viability ([10]; first compound 0.2 µM) was 0.669 and the relative viability ([10]; first compound 0.6325 µM) was 0.495. For the same compound, the relative viability ([10]; first compound 2 µM) was 0.609, the relative viability ([10]; first compound 6.325 µM) was 0.49 and the relative viability ([10]; first compound 20 µM) was 0.232. For the same compound, the relative viability ([11]; first compound 0.2 µM) was 0.704, the relative viability ([11]; first compound 0.6325 µM) was 0.734 and the relative viability ([11]; first compound 2 µM) was 0.584. For the same compound, the relative viability ([11]; first compound 6.325 µM) was 0.36, the relative viability ([11]; first compound 20 µM) was 0.336 and the relative viability ([12]; first compound 0.2 µM) was 0.515. It also gave a relative viability ([12]; first compound 0.6325 µM) of 0.57, a relative viability ([12]; first compound 2 µM) of 0.557 and a relative viability ([12]; first compound 6.325 µM) of 0.518. For the same compound, the relative viability ([12]; first compound 20 µM) was 0.474, the relative viability ([13]; first compound 0.2 µM) was 0.714 and the relative viability ([13]; first compound 0.6325 µM) was 0.595. The relative viability ([13]; first compound 2 µM) was 0.637, the relative viability ([13]; first compound 6.325 µM) was 0.461 and the relative viability ([13]; first compound 20 µM) was 0.2. For the same compound, the relative viability ([14]; first compound 0.2 µM) was 0.773, the relative viability ([14]; first compound 0.6325 µM) was 0.502 and the relative viability ([14]; first compound 2 µM) was 0.653. For the same compound, the relative viability ([14]; first compound 6.325 µM) was 0.217, the relative viability ([14]; first compound 20 µM) was 0.137 and the relative viability ([15]; first compound 0.2 µM) was 0.675. The relative viability ([15]; first compound 0.6325 µM) was 0.59, the relative viability ([15]; first compound 2 µM) was 0.663 and the relative viability ([15]; first compound 6.325 µM) was 0.633. For the same compound, the relative viability ([15]; first compound 20 µM) was 0.728, the relative viability ([16]; first compound 0.2 µM) was 0.41 and the relative viability ([16]; first compound 0.6325 µM) was 0.449. The relative viability ([16]; first compound 2 µM) was 0.437, the relative viability ([16]; first compound 6.325 µM) was 0.392 and the relative viability ([16]; first compound 20 µM) was 0.287. It also gave a relative viability ([17]; first compound 0.2 µM) of 0.53, a relative viability ([17]; first compound 2 µM) of 0.563 and a relative viability ([17]; first compound 6.325 µM) of 0.306. It also gave a relative viability ([17]; first compound 20 µM) of 0.156, a relative viability ([18]; first compound 0.2 µM) of 0.563 and a relative viability ([18]; first compound 0.6325 µM) of 0.414. For the same compound, the relative viability ([18]; first compound 2 µM) was 0.484, the relative viability ([18]; first compound 6.325 µM) was 0.533 and the relative viability ([18]; first compound 20 µM) was 0.36. It also gave a relative viability ([19]; first compound 0.2 µM) of 0.555, a relative viability ([19]; first compound 0.6325 µM) of 0.629 and a relative viability ([19]; first compound 2 µM) of 0.403. It also gave a relative viability ([19]; first compound 6.325 µM) of 0.313, a relative viability ([19]; first compound 20 µM) of 0.195 and a relative viability ([20]; first compound 0.2 µM) of 0.394. The relative viability ([20]; first compound 0.6325 µM) was 0.389, the relative viability ([20]; first compound 2 µM) was 0.41 and the relative viability ([20]; first compound 6.325 µM) was 0.316. The relative viability ([20]; first compound 20 µM) was 0.325, the relative viability ([21]; first compound 0.2 µM) was 0.656 and the relative viability ([21]; first compound 0.6325 µM) was 0.643. For the same compound, the relative viability ([21]; first compound 2 µM) was 0.591, the relative viability ([21]; first compound 6.325 µM) was 0.439 and the relative viability ([21]; first compound 20 µM) was 0.15. For the same compound, the relative viability ([22]; first compound 0.2 µM) was 0.689, the relative viability ([22]; first compound 0.6325 µM) was 0.724 and the relative viability ([22]; first compound 2 µM) was 0.544. It also gave a relative viability ([22]; first compound 6.325 µM) of 0.46, a relative viability ([22]; first compound 20 µM) of 0.0875 and a relative viability ([23]; first compound 0.2 µM) of 0.504. For the same compound, the relative viability ([23]; first compound 2 µM) was 0.579, the relative viability ([23]; first compound 6.325 µM) was 0.397 and the relative viability ([23]; first compound 20 µM) was 0.264.
